Measured values from ChEMBL document CHEMBL5727106, “Imidazol- or 1,2,4-triazol-derivatives and their use” (2019).

What was measured:
[1] = target: T1, G-protein coupled bile acid receptor 1 (Homo sapiens, UniProt Q8TDU6); assay: TGR5/CRE Luciferase Assay: In the following tables TGR5 activation by compounds and subsequent increase in intracellular cAMP were evaluated using a luciferase reporter gene assay. Human embryonic kidney (HEK) 293 cells were transiently co-transfected with pCMV tag4b-TGR5 h (to follow hTGR5 activation) or pCMV AC6-TGR5m (to follow mTGR5 activation) expression plasmids and the pCRE TA-Luciferase reporter plasmid using the JET PEI reagent (Polyplus transfection). Transfected cells were seeded in 96-well plates and incubated overnight with the test compounds at increasing concentrations tested in duplicate. Lithocolic acid (LCA) at 10 μM was used as a positive reference compound. The cAMP-dependent luciferase expression was followed using the BrightGlo reagent according to the manufacturer (Promega) instructions. Luminescence was read with a Mithras plate reader (Berthold). […] Concentration-response curves were fitted by a nonlinear regression analysis to a 4 parameter logistic equation.; assay type: cell-based
T1 sequence (Q8TDU6 whole entry): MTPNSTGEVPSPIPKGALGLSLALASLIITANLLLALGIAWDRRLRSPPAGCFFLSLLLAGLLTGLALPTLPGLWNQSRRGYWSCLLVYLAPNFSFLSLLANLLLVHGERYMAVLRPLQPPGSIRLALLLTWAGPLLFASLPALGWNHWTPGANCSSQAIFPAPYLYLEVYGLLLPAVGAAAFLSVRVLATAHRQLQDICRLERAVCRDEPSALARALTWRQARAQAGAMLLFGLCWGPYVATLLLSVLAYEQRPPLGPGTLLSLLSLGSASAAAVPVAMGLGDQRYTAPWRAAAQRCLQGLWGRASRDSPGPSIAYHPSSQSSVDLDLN

[2] = target: T2, G-protein coupled bile acid receptor 1 (Mus musculus, UniProt Q80SS6); assay: TGR5/CRE Luciferase Assay: In the following tables TGR5 activation by compounds and subsequent increase in intracellular cAMP were evaluated using a luciferase reporter gene assay. Human embryonic kidney (HEK) 293 cells were transiently co-transfected with pCMV tag4b-TGR5 h (to follow hTGR5 activation) or pCMV AC6-TGR5m (to follow mTGR5 activation) expression plasmids and the pCRE TA-Luciferase reporter plasmid using the JET PEI reagent (Polyplus transfection). Transfected cells were seeded in 96-well plates and incubated overnight with the test compounds at increasing concentrations tested in duplicate. Lithocolic acid (LCA) at 10 μM was used as a positive reference compound. The cAMP-dependent luciferase expression was followed using the BrightGlo reagent according to the manufacturer (Promega) instructions. Luminescence was read with a Mithras plate reader (Berthold). Data were expressed as percentage of the 10 μM LCA value and EC50 values were calculated using XL fit 5 software or GraphPad Prism 5. Concentration-response curves were fitted by a nonlinear regression analysis to a 4 parameter logistic equation.; assay type: cell-based
T2 sequence (Q80SS6 whole entry): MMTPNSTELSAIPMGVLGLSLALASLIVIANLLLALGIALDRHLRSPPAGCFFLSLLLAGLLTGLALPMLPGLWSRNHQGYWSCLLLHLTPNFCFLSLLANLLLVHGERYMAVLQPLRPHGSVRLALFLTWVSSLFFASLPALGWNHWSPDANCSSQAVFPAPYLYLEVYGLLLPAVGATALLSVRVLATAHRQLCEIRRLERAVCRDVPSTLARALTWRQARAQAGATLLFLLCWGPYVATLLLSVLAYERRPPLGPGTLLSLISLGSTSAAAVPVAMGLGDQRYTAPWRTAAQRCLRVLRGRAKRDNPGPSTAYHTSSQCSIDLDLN

| Compound | EC50 [1] | EC50 [2] |
| --- | --- | --- |
| COCCOCCOCCOCCOCCOCCOCCOCCOCCOc1cc(F)c(CSc2ncc(N(C)c3ccc(OC)c(OC)c3)n2-c2ccc(F)cc2)c(F)c1 | 160 nM | 18 nM |
| COCCOCCOCCOCCOCCOCCOCCOCCOCCOCCOc1cc(F)c(CSc2ncc(N(C)c3ccc(OC)c(OC)c3)n2-c2ccc(F)cc2)c(F)c1 | 580 nM | 29 nM |
| COCCOCCOCCOCCOCCOCCOCCOCCOCCOCCOCCOCCOCCOCCOCCOCCOCCOCCOCCOCCOCCOCCOCCOCCOCCOCCOCCOCCOCCOCCOCCOCCOCCOCCOCCOCCOCCOc1cc(F)c(CSc2ncc(N(C)c3ccc(OC)c(OC)c3)n2-c2ccc(F)cc2)c(F)c1 | 1200 nM | 68 nM |
| COCCOCCOCCOCCOCCOCCOCCOCCOCCOCCOCCOCCOCCOCCOCCOCCOc1cc(F)c(CSc2ncc(N(C)c3ccc(OC)c(OC)c3)n2-c2ccc(F)c(OC)c2)c(F)c1 | 330 nM | 26 nM |
